Test results published in US9540389B2, “Antimicrobial potentiators” (priority 2013, dated 2017).

Columns and labels:
Assay type in all cases: cell-based
[1] = tested on: Escherichia coli 285 (AB1157, CIPR, overexpresses efflux); test: microbe, parasite or virus in culture
Source text: (§1) • Strains and Reagents. The following strains were obtained from the Keio collection (Baba, et al.: Construction of Escherichia coli K-12 in-frame, single-gene knockout mutants: the Keio collection. In Mol Syst Biol, vol. 2, pp. 2006 0008, (2006)): JW0451 (ΔacrB::kan), JW5503 (ΔtolC::kan), JW3234 (ΔacrF::kan), JW2661 (ΔemrB::kan), JW0863 (ΔmacB::kan). The deletion mutations in each of these strains were transferred to AB1157 using P1 phage transduction (see Table 1). The construction of the E. coli cell-based reporter strain (SOS-XXX) that was used for high throughput screening is described in detail in the supplementary information. […] Irgasan was a generous gift from Ciba Speciality Chemicals, Inc. (High Point, N.C.). Hoechst 33342 (H33342) was purchased from Molecular Probes (Eugene, Oreg.). […] Luria Broth (Miller) and agar were purchased as prepared dehydrated media from Becton Dickenson (Franklin Lakes, N.J.). The compound libraries used in high-throughput screens were purchased from Chembridge (San Diego, Calif.), ChemDiv (San Diego, Calif.), and TimTec (Newark, Del.). MBX2319 was synthesized by Microbiotix, Inc. • Antibacterial Activity Assays. The minimal inhibitory concentration (MIC) of antibacterial agents and biocides were determined using the microbroth dilution method essentially as described in the CLSI protocol M7-A7 (CLSI: Method for dilution antimicrobial susceptibility testing for bacteria that grow aerobically; Approved standard-document M7-A7. In Clinical and Laboratory Standards Institute document M7-A7, Clinical and Laboratory Standards Institute, Wayne, Pa., (2006)), with the following exceptions. LB media was used instead of MHB. […] The final concentration of DMSO in each assay was 2%. […] MIC assays were performed in triplicate and the geometric mean was calculated. Checkerboard MIC assays using an EPI and an antibacterial agent were performed essentially as described (Pillai, et al.: Antimicrobial Combinations. In Antibiotics in Laboratory Medicine, ed. by V. Lorian, pp. 365-440, Lippincott Williams & Wilkins, Philadelphia, Pa., (2005)), with the same modifications used for the MIC assays described above. • Time-Kill Assays. Killing curve assays were performed essentially as described (Pillai, et al.: Antimicrobial Combinations. In Antibiotics in Laboratory Medicine, ed. by V. Lorian, pp. 365-440, Lippincott Williams & Wilkins, Philadelphia, Pa., (2005)). Exponential bacterial cultures grown in LB were diluted to a cell density of ˜1×10^7 in LB followed by addition of CIP and/or an EPI. Viability was monitored over 2-4 hours by making serial dilutions in saline and spotting 5 μl of each dilution onto the surface of an LB agar plate in triplicate. Colonies were counted after the plates were incubated at 37° C. for 16-18 hr, colony forming units (CFU) per ml were calculated, and the average and standard deviation for the three replicates was determined. For treatments that decreased CFU/ml below the limit of detection for the spot plating method, the 100 μl samples were diluted into 5 ml LB top agar, were poured onto LB agar plates, and incubated for 18 hr at 37° C. To calculate the fraction of the control for each sample, the average CFU/ml values for treated samples were divided by those from the same sample at 0 h (time=0). Each experiment was repeated at least three times, and a representative experiment is shown. • H33342 Accumulation Assay. The rate of accumulation of the fluorescent dye Hoechst 33342 (H33342), which is a substrate of a wide variety of bacterial efflux pumps (van den Berg van Saparoea, et al., Biochemistry, vol. 44, pp. 16931-16938, (2005)), can be used to estimate the activity of the major efflux pumps in E. coli and many other bacterial species. The H33342 accumulation assay was used to evaluate the effect of EPIs on the activity of the AcrAB-TolC efflux pump in several bacterial species essentially as described (Coldham, et al., J Antimicrob Chemother, vol. 65, pp. 1655-1663, (2010)). […]

[2] = tested on: Escherichia coli 287 (AB1157, CIPR, overexpresses efflux); test: microbe, parasite or virus in culture
Source text: as §1

[3] = tested on: Escherichia coli AB1157 (WT); test: Checkerboard MIC assay (antibacterial agent + MBX2319)
Source text: as §1

[4] = tested on: Escherichia coli AB1157 ΔacrF; test: as above; conditions: Escherichia coli, read-out: MIC (μM) MBX2319
Source text: as §1

[5] = tested on: Escherichia coli AB1157 ΔtolC; test: as above; conditions: Escherichia coli, read-out: MIC (μM) MBX2319
Source text: as §1

[6] = tested on: Escherichia coli AB1157 ΔacrB; test: as above; conditions: Escherichia coli, read-out: MIC (μM) MBX2319
Source text: as §1

[7] = Escherichia coli, read-out: MIC (μM) MBX2319

For `CC1(C)Cc2c(C#N)c(SCCc3ccccc3)nc(N3CCOCC3)c2CO1` [MBX2319], the “potentiation of the antibacterial activity of CIP, LEV, and PIP” value ([1]; E. coli strain 285) was 4-8 fold, the MIC [1, 7] was ≥ 100 µM and the “potentiation of the antibacterial activity of CIP, LEV, and PIP” value ([2]; E. coli strain 287) was 4-8 fold. For the same compound, the MIC [2, 7] was ≥ 100 µM, the MIC ([3]; Escherichia coli, MBX2319 alone, strain WT, read-out: MIC (μM) MBX2319) was ≥ 100 µM and the “decrease of the MIC of CIP by MBX2319” value ([3]; checkerboard, E. coli AB1157, ciprofloxacin) was 2 fold. For the same compound, the “decrease of the MIC of LEV by MBX2319” value ([3]; checkerboard, E. coli AB1157, levofloxacin) was 4 fold, the “decrease of the MIC of PIP by MBX2319” value ([3]; checkerboard, E. coli AB1157, piperacillin) was 8 fold and the MIC [4] was ≥ 100 µM. The MIC [5] was ≥ 100 µM and the MIC [6] was ≥ 100 µM.
